Test results from the supplement of paper PMC10307832.

How the values were obtained:
Assay in all cases: relative viability (nuclei count vs DMSO), 5 days (fraction); higher = more cells survive
Imatinib + Foretinib = compound: Cc1ccc(NC(=O)c2ccc(CN3CCN(C)CC3)cc2)cc1Nc1nccc(-c2cccnc2)n1 [Imatinib] + COc1cc2c(Oc3ccc(NC(=O)C4(C(=O)Nc5ccc(F)cc5)CC4)cc3F)ccnc2cc1OCCCN1CCOCC1 [Foretinib] (partner 0.25 µM)
Summary of the method: (§1)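 Lung cancer cell lines were seeded in 1536-well plates and dosed by pin tool the next day, with either a single drug or a fixed anchor-drug dose combined with five library-drug doses (not always all listed) spaced in √10 steps. Five days later, one step fixed the cells and stained their nuclei (final 0.05% Triton X-100, 1% formaldehyde, 1 ug/ml Hoechst), and nuclei were counted on 4× images. Relative viability is the nuclei count in treated wells divided by the count in vehicle wells, and each value is the median of duplicate plates.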

Imatinib + Linsitinib = compound: Cc1ccc(NC(=O)c2ccc(CN3CCN(C)CC3)cc2)cc1Nc1nccc(-c2cccnc2)n1 [Imatinib] + C[C@]1(O)C[C@@H](c2nc(-c3ccc4ccc(-c5ccccc5)nc4c3)c3c(N)nccn32)C1 [Linsitinib] (partner 1 µM)
Summary of the method: as §1

Imatinib + Alpelisib = compound: Cc1ccc(NC(=O)c2ccc(CN3CCN(C)CC3)cc2)cc1Nc1nccc(-c2cccnc2)n1 [Imatinib] + Cc1nc(NC(=O)N2CCC[C@H]2C(N)=O)sc1-c1ccnc(C(C)(C)C(F)(F)F)c1 [Alpelisib] (partner 2 µM)
Summary of the method: as §1

Imatinib + OSI-027 = compound: Cc1ccc(NC(=O)c2ccc(CN3CCN(C)CC3)cc2)cc1Nc1nccc(-c2cccnc2)n1 [Imatinib] + COc1cccc2cc(-c3nc([C@H]4CC[C@H](C(=O)O)CC4)n4ncnc(N)c34)[nH]c12 [OSI-027] (partner 0.5 µM)
Summary of the method: as §1

Cell Line | relative viability (Imatinib + Foretinib; first compound 0.02 µM) | relative viability (Imatinib + Foretinib; first compound 0.06325 µM) | relative viability (Imatinib + Foretinib; first compound 0.2 µM) | relative viability (Imatinib + Foretinib; first compound 0.6325 µM) | relative viability (Imatinib + Foretinib; first compound 2 µM) | relative viability (Imatinib + Linsitinib; first compound 0.02 µM) | relative viability (Imatinib + Linsitinib; first compound 0.06325 µM) | relative viability (Imatinib + Linsitinib; first compound 0.2 µM) | relative viability (Imatinib + Linsitinib; first compound 0.6325 µM) | relative viability (Imatinib + Linsitinib; first compound 2 µM) | relative viability (Imatinib + Alpelisib; first compound 0.02 µM) | relative viability (Imatinib + Alpelisib; first compound 0.06325 µM) | relative viability (Imatinib + Alpelisib; first compound 0.2 µM) | relative viability (Imatinib + Alpelisib; first compound 0.6325 µM) | relative viability (Imatinib + Alpelisib; first compound 2 µM) | relative viability (Imatinib + OSI-027; first compound 0.02 µM) | relative viability (Imatinib + OSI-027; first compound 0.06325 µM) | relative viability (Imatinib + OSI-027; first compound 0.2 µM) | relative viability (Imatinib + OSI-027; first compound 0.6325 µM) | relative viability (Imatinib + OSI-027; first compound 2 µM)
IA-LM | 1.34 | 1.2 | 1.06 | 1.4 | 1.17 | 0.688 | 0.652 | 0.561 | 1.38 | 0.593 | 0.838 | 1.1 | 0.928 | 0.967 | 0.702 | – | – | – | – | –
NCI-H1792 | – | – | – | – | – | 0.623 | 0.332 | 0.502 | 0.317 | 0.566 | 0.921 | 0.515 | 0.661 | 0.507 | 0.638 | 0.84 | 0.549 | 0.697 | 0.162 | 0.673
HCC-44 | – | – | – | – | – | 0.801 | – | 0.664 | 0.549 | 0.646 | 0.895 | 0.819 | 0.941 | 0.71 | 0.791 | 0.484 | 0.422 | 0.437 | 0.466 | 0.461
NCI-H1734 | 1.06 | 1.2 | 0.939 | 0.776 | 0.87 | – | – | – | – | – | 0.749 | – | 0.769 | 0.699 | – | 0.656 | 0.54 | 0.64 | 0.609 | 0.5
NCI-H2126 | 1.36 | 0.958 | 1.31 | 1.02 | – | 0.724 | – | 0.728 | 0.742 | 0.758 | – | – | – | – | – | 0.851 | 0.68 | 0.673 | 0.604 | 0.678
ChaGo-K-1 | 0.921 | 0.936 | 0.916 | 0.916 | 0.958 | – | – | – | – | – | – | – | – | – | – | 0.444 | 0.511 | 0.538 | 0.56 | 0.491
NCI-H1299 | 1.11 | 1.18 | 1.16 | 1.09 | – | 1.14 | 1.08 | 1.04 | 0.983 | – | 1.16 | 1.1 | 1.14 | 1.12 | 0.983 | – | – | – | – | –
Calu-6 | 1.08 | 1.01 | 1.01 | 0.925 | 0.891 | 0.993 | 0.997 | 1.07 | 0.967 | 1.04 | 1.1 | – | 1.11 | 1.01 | 0.946 | – | – | – | – | –
NCI-H2170 | 1.01 | 1.03 | 0.996 | 1.02 | 1 | – | – | – | – | – | 0.954 | 0.931 | 0.846 | 0.789 | 0.797 | 0.67 | 0.602 | 0.769 | 0.584 | 0.625
NCI-H1666 | 0.926 | 0.911 | 0.943 | 1.15 | 0.966 | 0.718 | 0.849 | – | 0.986 | 0.857 | 1.04 | 1.05 | 1.09 | 1.34 | 0.887 | – | – | – | – | –
